Laboratory results reported in US20120214834A1, “IMMUNE ENHANCEMENT COMPOSITION AND KIT AND USE THEREOF” (priority 2011, published 2012).

Test system: Human erythromyeloblastoid leukemia cell line K562 (target cells of NK cells)
Assay: Activity of NK cells against pre-treated K562 target cells, by flow cytometer (PKH67-GL / PI)
Assay type: cell-based
Conditions: K562 target cells treated with 10 nM rapamycin alone for 48 hours; effector:target 25:1, 16 hours co-culture
Experimental: Select Human erythromyeloblastoid leukemia cell line K562 as target cells and culture it by tissue culture technique in RPMI 1640 supplemented with 10% FBS to a proper amount. And then, take a suspension containing 1×10^6 cells and inoculate it in a 6-wells plate. […] And then, put the plate into a 37° C. incubator to continue culturing for 48 hours.
Use 1 mM of green fluorescent cell linker dye PKH67-GL(Sigma-Aldrich), which resolves in alcohol, to label the aforementioned cells. The detail steps are: resuspend 1×10^6 cells in 1 ml of Diluent C(Sigma-Aldrich), add PKH67-GL until the density reaches 4×10^−6 M and dye for 4 minutes under 25 °C. Add 1 ml FBS and 2 ml complete medium to end the coloring reaction, then wash it with PBS for three times. And then, dilute the amount of cells in a complete medium until it reaches 2.5×10^5 cells per ml and confirm the labeling and activity of cells by a Flow cytometer.
Dilute the amount of NK cells (the effector cell of the present Experimental Example) to 6.25×10^6 per ml. Mix 100 μl of the aforementioned diluted cell solution with 100 μl of the target cell solution so that the ratio of effector cells and target cells reaches 25:1. Put the mixed cells in a cell culture and culture for 16 hours in a 37□ incubator with 5% CO2. […]

**Q.** Which “activity ratio of NK cells, increase over Control” value does the source give for `CO[C@H]1C[C@@H]2CC[C@@H](C)[C@@](O)(O2)C(=O)C(=O)N2CCCC[C@H]2C(=O)O[C@H]([C@H](C)C[C@@H]2CC[C@@H](O)[C@H](OC)C2)CC(=O)[C@H](C)/C=C(\C)[C@@H](O)[C@@H](OC)C(=O)[C@H](C)C[C@H](C)/C=C/C=C/C=C/1C` [rapamycin] here?
**A.** 15%
